The values below come from patent publication USRE45810E1, “Process for producing spherical base granule comprising easily water-soluble drug” (ASAHI KASEI CHEMICALS CORPORATION, priority 2006, dated 2015).

Data set [1] is described as follows: Tackiness of dried film of layering liquid, finger test by panel of three experts. It counts as physicochemical. How it is done: A layering liquid (3 g) is poured in a polypropylene Petri dish having a diameter of 8 cm and dried at 40° C. in an air-circulation-free dryer (“FC610”, product of Advantec Co., Ltd.). Within three seconds after taking out the dried product from the dryer, tackiness of the dried film when an index finger is pressed against the film for two seconds and then released therefrom is evaluated by a panel of three experts. The tackiness is rated as “1” when no tackiness is observed, “2” when a little tackiness is observed, “3” when tackiness is observed, “4” when strong tackiness is observed, and “5” when very strong tackiness is observed. The tackiness of the dried film is evaluated by the average of them.
It is known empirically that agglomeration occurs during layering when the tackiness is “3” or higher so that the layering rate must be set low to prevent it. Layering cannot be performed in practice when the tackiness is “5”.

The conditions of data set [2]: in 1 cm^3 of water of 20° C., cited from earlier work.

Like-named read-outs stand apart in the source and are kept apart here.

In the case of `OC[C@@H](O)[C@@H](O)[C@H](O)[C@@H](O)CO` [Sorbitol, sorbitol], the “Tackiness of layering liquid (in words)” value in data set [1] is reported as “do not show a tackiness reducing effect”. The Solubility in data set [2] is 0.9 g.
For the molecule `OC[C@@H](O)[C@@H](O)[C@H](O)[C@H](O)CO` [D-mannitol], the Solubility in data set [2] is 0.18 g.
`O=C(CO)[C@@H](O)[C@H](O)[C@H](O)CO` [Fructose, fructose]: in data set [1], the “Tackiness of layering liquid (in words)” value is on record as “do not show a tackiness reducing effect”. Moreover, the figures for the Solubility in data set [2] and in data set [2] (listed as fructose) were 6 g and 0.6 g, respectively.
